Values after ≈ are worked out from the molar mass of the structure shown. Active and inactive are the calls of the source. No cut-off for these calls is given here.
How the values were obtained:
Staphylococcus aureus [1] = experiment: Bactericidal activity against Staphylococcus aureus ATCC 29213 using fresh sample in DMSO after 24 to 48 hrs by CLSI method; assay type: functional
Staphylococcus aureus [2] = experiment: Bactericidal activity against methicillin-resistant Staphylococcus aureus EAMC30 using fresh sample in DMSO after 24 to 48 hrs by CLSI method; assay type: functional
Staphylococcus aureus [3] = experiment: Antibacterial activity against Staphylococcus aureus ATCC 29213 assessed as growth inhibition using fresh sample in DMSO by CLSI method; assay type: functional, organism-based
[4] = Chemical stability in acetonitrile after 1 week by LC-MS analysis; assay type: physicochemical; conditions: 168 h
Enterococcus faecalis [5] = experiment: Bactericidal activity against Enterococcus faecalis ATCC 29212 using fresh sample in DMSO after 24 to 48 hrs by CLSI method; assay type: functional
Candida albicans = experiment: Antifungal activity against Candida albicans ATCC 90028 at 20 ug/ml by CLSI method; assay type: functional, organism-based
Enterococcus faecium [6] = experiment: Antibacterial activity against vancomycin-resistant Enterococcus faecium ATCC 700221 assessed as growth inhibition using fresh sample in DMSO by CLSI method; assay type: functional, organism-based
Staphylococcus aureus [7] = experiment: Antibacterial activity against methicillin-resistant Staphylococcus aureus ATCC 33591 assessed as growth inhibition using fresh sample in DMSO by CLSI method; assay type: functional, organism-based
Enterococcus faecium [8] = experiment: Bactericidal activity against vancomycin-resistant Enterococcus faecium ATCC 700221 using fresh sample in DMSO at 20 ug/ml after 24 to 48 hrs by CLSI method; assay type: functional, organism-based
Staphylococcus aureus [9] = experiment: Bactericidal activity against methicillin-resistant Staphylococcus aureus ATCC 33591 using fresh sample in DMSO after 24 to 48 hrs by CLSI method; assay type: functional
Enterococcus faecalis [10] = experiment: Antibacterial activity against Enterococcus faecalis ATCC 29212 assessed as growth inhibition using fresh sample in DMSO by CLSI method; assay type: functional, organism-based
Enterococcus faecalis [11] = experiment: Bactericidal activity against Enterococcus faecalis ATCC 51299 using fresh sample in DMSO after 24 to 48 hrs by CLSI method; assay type: functional
Staphylococcus aureus [12] = experiment: Antibacterial activity against methicillin-resistant Staphylococcus aureus EAMC30 assessed as growth inhibition using fresh sample in DMSO by CLSI method; assay type: functional, organism-based
Enterococcus faecalis [13] = experiment: Antibacterial activity against Enterococcus faecalis ATCC 51299 assessed as growth inhibition using fresh sample in DMSO by CLSI method; assay type: functional, organism-based
Staphylococcus aureus [14] = experiment: Bactericidal activity against methicillin-resistant Staphylococcus aureus ATCC 33591 using fresh sample in DMSO at 100 ug/ml after 24 to 48 hrs by CLSI method; assay type: functional, organism-based
Staphylococcus aureus [15] = experiment: Antibacterial activity against methicillin-resistant Staphylococcus aureus ATCC 33591 assessed as growth inhibition using fresh sample in DMSO at 100 ug/ml by CLSI method; assay type: functional, organism-based
Enterococcus faecalis [16] = experiment: Bactericidal activity against Enterococcus faecalis ATCC 51299 using fresh sample in DMSO at 100 ug/ml after 24 to 48 hrs by CLSI method; assay type: functional, organism-based

Row | Compound | MBC (Staphylococcus aureus [1]) | MBC (Staphylococcus aureus [2]) | IC50 (Staphylococcus aureus [3]) | MIC (Staphylococcus aureus [3]) | MBC (Enterococcus faecalis [5]) | IC50 (Staphylococcus aureus [7]) | MIC (Staphylococcus aureus [7]) | MBC (Staphylococcus aureus [9]) | IC50 (Enterococcus faecalis [10]) | MIC (Enterococcus faecalis [10]) | MBC (Enterococcus faecalis [11]) | IC50 (Staphylococcus aureus [12]) | MIC (Staphylococcus aureus [12]) | IC50 (Enterococcus faecalis [13]) | MIC (Enterococcus faecalis [13]) | other results
1 | COc1cc(O)cc2c1C(=O)OC(CC(C)O)CC(O)C/C=C/C(O)CC(O)CC(O)C/C(C)=C/C=C/C=C/C=C/C=C/c1cc(O)cc(OC)c1C(=O)OC(CC(C)O)CC(O)C/C=C/C(O)CC(O)CC(O)C/C(C)=C/C=C/C=C/C=C/C=C/2 (configuration not stated) | 2.5 µg/mL (≈ 2.09 µM) | 0.6 µg/mL (≈ 0.501 µM) | 0.04 µg/mL (≈ 0.0334 µM) | 1.2 µg/mL (≈ 1 µM) | 2.5 µg/mL (≈ 2.09 µM) | 0.04 µg/mL (≈ 0.0334 µM) | 1.2 µg/mL (≈ 1 µM) | 1.2 µg/mL (≈ 1 µM) | 0.2 µg/mL (≈ 0.167 µM) | 0.6 µg/mL (≈ 0.501 µM) | 1.2 µg/mL (≈ 1 µM) | < 0.02 µg/mL | 0.6 µg/mL (≈ 0.501 µM) | 0.2 µg/mL (≈ 0.167 µM) | 0.6 µg/mL (≈ 0.501 µM) | Stability [4]: Unstable; Activity (Candida albicans): inactive; IC50 (Enterococcus faecium [6]): 0.1 µg/mL (≈ 0.0835 µM); MIC (Enterococcus faecium [6]): 0.6 µg/mL (≈ 0.501 µM); Activity (Enterococcus faecium [8]): inactive
2 | COc1cccc(OC)c1C(=O)N[C@@H]1C(=O)N2[C@@H]1SC(C)(C)[C@@H]2C(=O)O [METHICILLIN] | 12.5 µg/mL (≈ 32.9 µM) | – | – | 3.1 µg/mL (≈ 8.15 µM) | 50 µg/mL (≈ 131 µM) | – | – | – | 15.3 µg/mL (≈ 40.2 µM) | 25 µg/mL (≈ 65.7 µM) | 50 µg/mL (≈ 131 µM) | 10.1 µg/mL (≈ 26.5 µM) | 50 µg/mL (≈ 131 µM) | 14.2 µg/mL (≈ 37.3 µM) | 50 µg/mL (≈ 131 µM) | Activity (Staphylococcus aureus [14]): inactive; growth inhibition (GI) (Staphylococcus aureus [15]): inactive
3 | CN[C@H](CC(C)C)C(=O)N[C@H]1C(=O)N[C@@H](CC(N)=O)C(=O)N[C@H]2C(=O)N[C@H]3C(=O)N[C@H](C(=O)N[C@H](C(=O)O)c4cc(O)cc(O)c4-c4cc3ccc4O)[C@H](O)c3ccc(c(Cl)c3)Oc3cc2cc(c3O[C@@H]2O[C@H](CO)[C@@H](O)[C@H](O)[C@H]2O[C@H]2C[C@](C)(N)[C@H](O)[C@H](C)O2)Oc2ccc(cc2Cl)[C@H]1O [VANCOMYCIN] | 50 µg/mL (≈ 34.5 µM) | 0.4 µg/mL (≈ 0.276 µM) | 0.7 µg/mL (≈ 0.483 µM) | 1.6 µg/mL (≈ 1.1 µM) | 50 µg/mL (≈ 34.5 µM) | 0.8 µg/mL (≈ 0.552 µM) | 1.6 µg/mL (≈ 1.1 µM) | 1.6 µg/mL (≈ 1.1 µM) | 1 µg/mL (≈ 0.69 µM) | 1.6 µg/mL (≈ 1.1 µM) | – | 0.2 µg/mL (≈ 0.138 µM) | 0.4 µg/mL (≈ 0.276 µM) | 3.4 µg/mL (≈ 2.35 µM) | 6.2 µg/mL (≈ 4.28 µM) | Activity (Enterococcus faecalis [16]): inactive
